# According to US20170050957A1, “4-AMINO-6-(HETEROCYCLIC)PICOLINATES AND 6-AMINO-2-(HETEROCYCLIC)PYRIMIDINE-4-CARBOXYLATES AND THEIR USE AS HERBICIDES” (Dow AgroSciences LLC, priority 2013, published 2017):
# Tested on: giant foxtail (Setaria faberi)
# Assay: Pre-emergent Test I herbicidal activity
# Format: in vivo
# Method: Pre-emergent Test I Seeds of test species were planted into round plastic pots (5-inch diameter) containing sandy loam soil. After planting, all pots were sub-irrigated 16 h prior to compound application. Compounds were dissolved in a 97:3 v/v (volume/volume) mixture of acetone and dimethyl sulfoxide (DMSO) and diluted to the appropriate concentration in a final application solution containing water, acetone, isopropanol, DMSO and Agri-dex (crop oil concentrate) in a 59:23:15:1.0:1.5 v/v ratio and 0.02% w/v (weight/volume) of Triton X-155 to obtain the spray solution containing the highest application rate. The high application rate was serial diluted with the above application solution to provide delivery of the compound at rates 1/2×, 1/4× and 1/8× of the highest rate (equivalent to 4.0, 2.0, 1.0, and 0.5 kg/ha, respectively). Formulated compound (2.7 mL) was applied pipetted evenly over the soil surface followed by incorporation with water (15 mL). Following treatment, pots were returned to the greenhouse for the duration of the experiment. The greenhouse was programmed for an approximate 15 h photoperiod which was maintained at about 23-29° C. during the day and 22-28° C. during the night. Nutrients and water were added on a regular basis through surface irrigation and supplemental lighting was provided with overhead metal halide 1000-Watt lamps as necessary. Herbicidal effect ratings were obtained 14 days after treatment. All evaluations were made relative to appropriate controls on a scale of 0 to 100 where 0 represents no herbicidal effect and 100 represents plant death or lack of emergence from the soil.
Compound,"Visual Growth Reduction (%) 14 Days After Application, SETFA (3.96 Kg ai/ha)","Visual Growth Reduction (%) 14 Days After Application, SETFA (4 Kg ai/ha)"
COC(=O)c1nc(-c2ccc3ccn(C)c3c2)c(F)c(N)c1Cl [Compound 1.10],G (0-29),–
COC(=O)c1nc(-c2ccc3sccc3c2)cc(N)c1Cl [Compound 3.05],–,A (95-100)
Nc1c(F)c(-c2cccc3cc[nH]c23)nc(C(=O)O)c1Cl [Compound 1.48],–,G (0-29)
